Active and inactive are the calls of the source. The calls are words filed in the database; no cut-off is given here.
Legend:
L02 = test: cells; conditions: Homo sapiens, L02, 72 h
Description: Cytotoxicity against human L02 cells assessed as inhibition of cell growth incubated for 72 hrs by MTT assay

SGC-7901 = test: cells; conditions: Homo sapiens, SGC-7901, 72 h
Description: Cytotoxicity against human SGC-7901 cells assessed as inhibition of cell growth incubated for 72 hrs by MTT assay

HepG2 = test: cells; conditions: Homo sapiens, HepG2, 72 h
Description: Cytotoxicity against human HepG2 cells assessed as inhibition of cell growth incubated for 72 hrs by MTT assay

A549 = test: cells; conditions: Homo sapiens, A549, 72 h
Description: Cytotoxicity against human A549 cells assessed as inhibition of cell growth incubated for 72 hrs by MTT assay

MCF7 = test: cells; conditions: Homo sapiens, MCF7, 72 h
Description: Cytotoxicity against human MCF7 cells assessed as inhibition of cell growth incubated for 72 hrs by MTT assay

NCI-H1975 = test: cells; conditions: Homo sapiens, NCI-H1975, 72 h
Description: Cytotoxicity against human NCI-H1975 cells assessed as inhibition of cell growth incubated for 72 hrs by MTT assay

A-431 = test: cells; conditions: Homo sapiens, A-431, 72 h
Description: Cytotoxicity against human A-431 cells assessed as inhibition of cell growth incubated for 72 hrs by MTT assay

PANC-1 [1] = test: Effect on MEK protein expression in human PANC-1 cells at 2 uM incubated for 24 hrs by Western blot analysis; type: functional, cell-based
PANC-1 [2] = test: Effect on Histone H3 expression in human PANC-1 cells at 2 uM incubated for 24 hrs by Western blot analysis; type: functional, cell-based
PANC-1 [3] = test: Inhibition of MAPK signaling pathway in human PANC-1 cells assessed as inhibition of C-RAF phosphorylation at Ser338 residue at 2 uM incubated for 24 hrs by Western blot analysis; type: cell-based
HT-29 [4] = test: Induction of apoptosis in human HT-29 cells assessed as apoptotic ratio at 2 uM incubated for 24 hrs by flow cytometric analysis; type: functional
HT-29 [5] = test: Cell cycle arrest in human HT-29 cells assessed as accumulation of cells at G2-M phase at 2 uM incubated for 24 hrs by PI/RNase staining based flow cytometric analysis; type: functional
PANC-1 [6] = test: cells; conditions: Homo sapiens, PANC-1, 72 h
Description: Cytotoxicity against human PANC-1 cells assessed as inhibition of cell growth incubated for 72 hrs by MTT assay

PANC-1 [7] = test: Induction of apoptosis in human PANC-1 cells assessed as increase in Cytochrome C expression level at 2 uM incubated for 24 hrs by Western blot analysis; type: functional, cell-based
[8] = Metabolic stability in mouse liver microsomes assessed as half-life at 1 uM measured upto 40 mins by LC-MS/MS analysis; type: ADME, Microsome
HT-29 [9] = test: Inhibition of MAPK signaling pathway in human HT-29 cells assessed as inhibition of MEK phosphorylation at 2 uM incubated for 24 hrs by Western blot analysis; type: cell-based
PANC-1 [10] = test: Effect on alpha-tubulin expression in human PANC-1 cells at 2 uM incubated for 24 hrs by Western blot analysis; type: functional, cell-based
Histone deacetylase 9 = Histone deacetylase 9 (Homo sapiens, UniProt Q9UKV0); test: Inhibition of HDAC9 (unknown origin)
Chain of Histone deacetylase 9 (Q9UKV0 whole entry): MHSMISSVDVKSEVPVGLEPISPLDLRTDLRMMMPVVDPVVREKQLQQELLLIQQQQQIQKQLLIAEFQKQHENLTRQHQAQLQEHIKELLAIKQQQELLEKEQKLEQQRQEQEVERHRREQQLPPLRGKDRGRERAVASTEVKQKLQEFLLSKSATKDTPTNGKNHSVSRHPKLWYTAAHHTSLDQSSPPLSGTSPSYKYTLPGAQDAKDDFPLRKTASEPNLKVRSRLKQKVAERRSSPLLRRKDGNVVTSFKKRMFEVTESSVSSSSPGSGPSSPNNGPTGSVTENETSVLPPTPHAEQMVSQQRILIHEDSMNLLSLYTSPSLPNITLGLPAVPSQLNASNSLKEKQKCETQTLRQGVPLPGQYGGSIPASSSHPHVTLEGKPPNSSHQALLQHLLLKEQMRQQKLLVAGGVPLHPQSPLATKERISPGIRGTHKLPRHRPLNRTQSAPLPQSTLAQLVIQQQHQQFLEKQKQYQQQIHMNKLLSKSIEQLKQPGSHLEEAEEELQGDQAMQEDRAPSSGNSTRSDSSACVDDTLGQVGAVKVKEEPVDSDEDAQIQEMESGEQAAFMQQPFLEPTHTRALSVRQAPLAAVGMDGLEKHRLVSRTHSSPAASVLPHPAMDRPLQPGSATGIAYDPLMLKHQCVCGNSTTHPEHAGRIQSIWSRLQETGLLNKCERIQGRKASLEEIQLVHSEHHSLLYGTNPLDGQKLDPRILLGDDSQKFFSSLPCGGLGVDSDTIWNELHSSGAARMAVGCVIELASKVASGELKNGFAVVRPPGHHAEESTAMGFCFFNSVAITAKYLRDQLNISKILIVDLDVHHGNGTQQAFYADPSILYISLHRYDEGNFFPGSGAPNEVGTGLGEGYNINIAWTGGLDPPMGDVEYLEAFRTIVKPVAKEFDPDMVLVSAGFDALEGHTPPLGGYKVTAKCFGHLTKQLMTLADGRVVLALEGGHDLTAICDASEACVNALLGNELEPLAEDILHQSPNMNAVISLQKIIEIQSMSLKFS

HT-29 [11] = test: Induction of apoptosis in human HT-29 cells incubated for 24 hrs by flow cytometric analysis; type: functional, cell-based; conditions: dose 1-4 µM
HT-29 [12] = test: Effect on MEK protein expression in human HT-29 cells at 2 uM incubated for 24 hrs by Western blot analysis; type: functional, cell-based
K562 = test: cells; conditions: Homo sapiens, K562, 72 h
Description: Cytotoxicity against human K562 cells assessed as inhibition of cell growth incubated for 72 hrs by MTT assay

PANC-1 [13] = test: Induction of apoptosis in human PANC-1 cells assessed as increase in cleaved caspase-9 expression level at 2 uM incubated for 24 hrs by Western blot analysis; type: functional, cell-based
PANC-1 [14] = test: Induction of apoptosis in human PANC-1 cells incubated for 24 hrs by flow cytometric analysis; type: functional, cell-based; conditions: dose 1-4 µM
HT-29 [15] = test: Inhibition of MAPK signaling pathway in human HT-29 cells assessed as inhibition of ERK1/2 phosphorylation at 2 uM incubated for 24 hrs by Western blot analysis; type: cell-based
HT-29 [16] = test: Effect on ERK1/2 protein expression in human HT-29 cells at 2 uM incubated for 24 hrs by Western blot analysis; type: functional, cell-based
Histone deacetylase 4 = Histone deacetylase 4 (Homo sapiens, UniProt P56524); test: Inhibition of HDAC4 (unknown origin)
Chain of Histone deacetylase 4 (P56524 whole entry): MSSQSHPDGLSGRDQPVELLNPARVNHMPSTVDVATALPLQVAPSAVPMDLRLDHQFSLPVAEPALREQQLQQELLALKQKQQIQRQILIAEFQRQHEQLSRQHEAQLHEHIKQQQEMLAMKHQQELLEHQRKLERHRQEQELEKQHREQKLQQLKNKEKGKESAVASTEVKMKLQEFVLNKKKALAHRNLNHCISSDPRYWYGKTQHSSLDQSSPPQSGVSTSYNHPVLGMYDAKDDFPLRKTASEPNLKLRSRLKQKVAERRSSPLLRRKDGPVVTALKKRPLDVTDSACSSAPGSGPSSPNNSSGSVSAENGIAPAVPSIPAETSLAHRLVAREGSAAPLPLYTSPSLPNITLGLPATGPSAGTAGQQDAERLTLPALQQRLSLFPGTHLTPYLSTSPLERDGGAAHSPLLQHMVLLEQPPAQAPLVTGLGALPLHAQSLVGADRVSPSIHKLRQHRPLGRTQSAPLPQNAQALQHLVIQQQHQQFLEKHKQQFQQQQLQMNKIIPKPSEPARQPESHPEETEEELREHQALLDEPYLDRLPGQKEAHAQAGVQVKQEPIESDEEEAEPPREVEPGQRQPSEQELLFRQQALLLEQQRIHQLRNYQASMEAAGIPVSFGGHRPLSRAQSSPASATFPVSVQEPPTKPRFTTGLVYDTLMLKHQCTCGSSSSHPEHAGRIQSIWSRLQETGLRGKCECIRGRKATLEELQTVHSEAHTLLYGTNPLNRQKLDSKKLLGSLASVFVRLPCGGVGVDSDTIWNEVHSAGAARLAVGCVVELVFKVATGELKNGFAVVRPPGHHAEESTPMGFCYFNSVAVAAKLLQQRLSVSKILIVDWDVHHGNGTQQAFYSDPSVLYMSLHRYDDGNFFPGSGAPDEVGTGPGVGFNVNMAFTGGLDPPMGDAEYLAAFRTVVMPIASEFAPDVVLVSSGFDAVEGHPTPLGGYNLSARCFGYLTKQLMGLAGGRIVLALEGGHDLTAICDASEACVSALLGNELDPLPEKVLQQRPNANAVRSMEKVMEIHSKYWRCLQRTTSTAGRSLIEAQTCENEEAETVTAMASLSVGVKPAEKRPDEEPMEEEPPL

[17] = Metabolic stability in mouse liver microsomes assessed as intrinsic clearance at 1 uM measured upto 40 mins by LC-MS/MS analysis; type: ADME, Microsome; conditions: read-out: CLH
MV4-11 = test: cells; conditions: Homo sapiens, MV4-11, 72 h
Description: Cytotoxicity against human MV4-11 cells assessed as inhibition of cell growth incubated for 72 hrs by MTT assay

PANC-1 [18] = test: Induction of apoptosis in human PANC-1 cells assessed as apoptotic cells at 2 uM incubated for 24 hrs by flow cytometric analysis relative to control; type: functional
[19] = Metabolic stability in human liver microsomes assessed as half-life at 1 uM measured upto 40 mins by LC-MS/MS analysis; type: ADME, Microsome
HT-29 [20] = test: Effect on Histone H3 expression in human HT-29 cells at 2 uM incubated for 24 hrs by Western blot analysis; type: functional, cell-based
PANC-1 [21] = test: Induction of apoptosis in human PANC-1 cells assessed as increase in cleaved PARP expression level at 2 uM incubated for 24 hrs by Western blot analysis; type: functional, cell-based
PANC-1 [22] = test: Induction of apoptosis in human PANC-1 cells assessed as increase in Bax expression at 2 uM incubated for 24 hrs by Western blot analysis; type: functional, cell-based
[23] = Metabolic stability in rat liver microsomes assessed as intrinsic clearance at 1 uM measured upto 40 mins by LC-MS/MS analysis; type: ADME, Microsome; conditions: read-out: CLH
[24] = biological target: Serine/threonine-protein kinase PLK1 (Homo sapiens, UniProt P53350); test: Inhibition of PLK1 (unknown origin)
Chain of Serine/threonine-protein kinase PLK1 (P53350 whole entry): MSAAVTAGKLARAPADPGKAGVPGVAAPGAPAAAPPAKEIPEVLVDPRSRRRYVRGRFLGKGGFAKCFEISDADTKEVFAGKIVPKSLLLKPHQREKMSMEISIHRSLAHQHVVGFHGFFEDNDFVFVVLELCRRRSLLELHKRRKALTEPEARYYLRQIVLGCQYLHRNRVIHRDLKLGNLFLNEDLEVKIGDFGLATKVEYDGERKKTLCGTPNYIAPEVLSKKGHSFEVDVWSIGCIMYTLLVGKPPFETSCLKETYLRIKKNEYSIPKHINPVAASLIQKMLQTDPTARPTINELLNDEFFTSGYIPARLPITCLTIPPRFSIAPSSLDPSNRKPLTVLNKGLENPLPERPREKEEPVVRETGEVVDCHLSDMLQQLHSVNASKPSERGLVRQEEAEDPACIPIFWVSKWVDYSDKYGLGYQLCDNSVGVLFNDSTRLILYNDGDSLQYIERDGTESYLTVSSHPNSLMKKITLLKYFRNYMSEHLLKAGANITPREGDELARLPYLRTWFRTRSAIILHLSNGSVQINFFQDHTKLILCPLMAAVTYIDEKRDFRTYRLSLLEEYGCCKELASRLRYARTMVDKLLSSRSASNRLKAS

HT-29 [25] = test: cells; conditions: Homo sapiens, HT-29, 72 h
Description: Cytotoxicity against human HT-29 cells assessed as inhibition of cell growth incubated for 72 hrs by MTT assay

[26] = Metabolic stability in human liver microsomes assessed as intrinsic clearance at 1 uM measured upto 40 mins by LC-MS/MS analysis; type: ADME, Microsome; conditions: read-out: CLH
PANC-1 [27] = test: Inhibition of MAPK signaling pathway in human PANC-1 cells assessed as inhibition of ERK1/2 phosphorylation at 2 uM incubated for 24 hrs by Western blot analysis; type: cell-based
PANC-1 [28] = test: Cell cycle arrest in human PANC-1 cells assessed as accumulation of cells at G2-M phase at 2 uM incubated for 24 hrs by PI/RNase staining based flow cytometric analysis; type: functional
PANC-1 [29] = test: Inhibition of MAPK signaling pathway in human PANC-1 cells assessed as inhibition of MEK phosphorylation at 2 uM incubated for 24 hrs by Western blot analysis; type: cell-based
PANC-1 [30] = test: Effect on ERK1/2 protein expression in human PANC-1 cells at 2 uM incubated for 24 hrs by Western blot analysis; type: functional, cell-based
PANC-1 [31] = test: Effect on RAS protein expression in human PANC-1 cells at 2 uM incubated for 24 hrs by Western blot analysis; type: functional, cell-based
HT-29 [32] = test: Effect on alpha-tubulin expression in human HT-29 cells at 2 uM incubated for 24 hrs by Western blot analysis; type: functional, cell-based
[33] = Metabolic stability in rat liver microsomes assessed as half-life at 1 uM measured upto 40 mins by LC-MS/MS analysis; type: ADME, Microsome
HT-29 [34] = test: Inhibition of MAPK signaling pathway in human HT-29 cells assessed as inhibition of C-RAF phosphorylation at Ser338 residue at 2 uM incubated for 24 hrs by Western blot analysis; type: cell-based
HT-29 [35] = test: Effect on RAS protein expression in human HT-29 cells at 2 uM incubated for 24 hrs by Western blot analysis; type: functional, cell-based
PANC-1 [36] = test: Induction of apoptosis in human PANC-1 cells assessed as increase in cleaved caspase-3 expression level at 2 uM incubated for 24 hrs by Western blot analysis; type: functional, cell-based

COc1cc(OC)c(/C=C/S(=O)(=O)Cc2ccc(OC)c(NCCCCCC(=O)NO)c2)c(OC)c1
IC50 (L02): > 40000 nM
IC50 (SGC-7901): 4920 nM
IC50 (HepG2): 4640 nM
IC50 (A549): 6020 nM
IC50 (MCF7): 7560 nM
IC50 (NCI-H1975): 5080 nM
IC50 (A-431): 4640 nM

COc1cc(OC)c(/C=C/S(=O)(=O)Cc2ccc(OC)c(NC(=O)CCC(=O)NO)c2)c(OC)c1
Activity (PANC-1 [1]): inactive
IC50 (L02): > 40000 nM
Activity (PANC-1 [2]): inactive
inhibition (PANC-1 [3]): Active
Activity (HT-29 [4]): 46.2%
Activity (HT-29 [5]): Active
IC50 (PANC-1 [6]): 110 nM
Activity (PANC-1 [7]): Active
half-life at 1 µM [8]: 14.4 min
inhibition (HT-29 [9]): Active
Activity (PANC-1 [10]): inactive
IC50 (Histone deacetylase 9): 91.3 nM
IC50 (SGC-7901): 260 nM
Activity (HT-29 [11]): Dose-Dependent Effect
Activity (HT-29 [12]): inactive
IC50 (HepG2): 1680 nM
IC50 (K562): 20 nM
Activity (PANC-1 [13]): Active
Activity (PANC-1 [14]): Dose-Dependent Effect
inhibition (HT-29 [15]): Active
Activity (HT-29 [16]): inactive
IC50 (A549): 210 nM
IC50 (Histone deacetylase 4): 84.1 nM
CLint scaled at 1 µM [17]: 379 mL/min/kg
IC50 (MV4-11): 150 nM
Activity (PANC-1 [18]): 55.1%
half-life at 1 µM [19]: 48 min
Activity (HT-29 [20]): inactive
Activity (PANC-1 [21]): Active
Activity (PANC-1 [22]): Active
CLint scaled at 1 µM [23]: 70.2 mL/min/kg
IC50 [24]: 20.5 nM
inhibition [24]: Dose-Dependent Effect
IC50 (HT-29 [25]): 120 nM
CLint scaled at 1 µM [26]: 36.2 mL/min/kg
inhibition (PANC-1 [27]): Active
Activity (PANC-1 [28]): Active
inhibition (PANC-1 [29]): Active
Activity (PANC-1 [30]): inactive
IC50 (MCF7): 240 nM
IC50 (NCI-H1975): 80 nM
Activity (PANC-1 [31]): inactive
Activity (HT-29 [32]): inactive
IC50 (A-431): 330 nM
half-life at 1 µM [33]: 35.4 min
inhibition (HT-29 [34]): Active
Activity (HT-29 [35]): inactive
Activity (PANC-1 [36]): Active

COc1cc(OC)c(/C=C/S(=O)(=O)Cc2ccc(OC)c(NCCC(=O)NO)c2)c(OC)c1
IC50 (L02): > 40000 nM
IC50 (SGC-7901): 5460 nM
IC50 (HepG2): 15000 nM
IC50 (A549): 9350 nM
IC50 (MCF7): 5450 nM
IC50 (NCI-H1975): 3950 nM
IC50 (A-431): 2030 nM
